# Assay results: US8465960B2 (priority 2007, dated 2013)
# Assays:
# [1] = system: influenza B virus NA with Gly402Ser mutation; assay type: biochemical
# [2] = molecular target: influenza B virus NA with Ser250Gly mutation (Influenza B virus, UniProt P27907, S248G); assay type: biochemical
# [3] = molecular target: influenza B virus NA with Asp198Asn mutation (Influenza B virus, UniProt P27907, D196N)
# [4] = molecular target: influenza B virus NA with Ile222Thr mutation (UniProt P03474, I221T, species not given)
smiles,measurement,setting,value
CCOC(=O)C1=C[C@@H](OC(CC)CC)[C@H](NC(C)=O)[C@@H](N)C1 [oseltamivir],increase of IC50 of posttreatment isolate compared to virus isolated before treatment,[1],3.9 fold
same,effect of mutation on sensitivity,[2],did not reduce sensitivity
same,reduction in drug sensitivity compared with median IC50 of type B viruses,[3],3-4 fold
same,reduction in sensitivity compared with median IC50 of type B viruses,[4],6-7 fold
